According to patent US6284734A, “Inhibitors against prostate-specific antigen” (JCR Pharmaceuticals Co., Ltd., priority 1997, dated 2001):
No end group written: not given here.

Columns and labels:
PSA [1] = target: T1, PSA (Homo sapiens, UniProt P07288); assay: PSA activity assay with Pro-Phe-Arg-MCA substrate, residual activity in coexistence of peptides; assay type: biochemical; conditions: enzyme added PSA, 100% without any Peptide
T1 construct: Using PSA as purified from human urine or seminal plasma; from tissue; host or cells: human urine or seminal plasma
T1 sequence (P07288 25-261): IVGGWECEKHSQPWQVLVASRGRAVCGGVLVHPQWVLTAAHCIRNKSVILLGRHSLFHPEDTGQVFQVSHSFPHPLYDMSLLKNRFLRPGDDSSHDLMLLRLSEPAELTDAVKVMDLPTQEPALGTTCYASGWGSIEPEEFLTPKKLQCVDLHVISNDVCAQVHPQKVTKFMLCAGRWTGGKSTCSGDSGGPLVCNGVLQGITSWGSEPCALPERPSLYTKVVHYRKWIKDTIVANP
Procedure: Then, investigation was conducted into whether or not these peptides act to inhibit the PSA activity.
While using […] of 100 μM or 10 μM Pro-Phe-Arg-MCA (supplied by Peptide Research. Institute of Japan) as a substrate, 0.1 ml of 100 μM of each of Peptides 1 to 5 was mixed with the substrate and 0.7 ml of 0.1M Tris-hydrochloride buffer (pH 8.0) to allow the reaction to proceed at 37° C. for 5 min, followed by addition of 0.1 ml of 0.12 mg/ml PSA solution. The reaction solution was subjected to time-course measurement of fluorescence intensity (Ex380 nm, Em460nm) at 37° C. for 3 min, and the inhibitory activity value was determined from a slope of the straight line. […] In the above experiments, Pro-Phe-Arg-MCA, Peptides 1 to 5 PSA and kallikrein were used after being dissolved in 0.1M Tris-hydrochloride buffer (pH 8.0).
These findings are in good agreement with the fact that PSA a protease belonging to the kallikrein family .

PSA [2] = target: T1, PSA; assay: Degradation of r-IGFBP3 by PSA, SDS electrophoresis and Western blotting with densitometry; assay type: biochemical; conditions: relative to r-IGFBP3 alone (100.0); r-IGFBP3 + PSA 50.0; 4 nmol Peptide 4
Procedure: And PSA degrades r-IGFB3 into fragments, whereby its degradation process can be confirmed by means of SDS-electrophoresis and Western blotting.
A specimen was prepared by dissolving 0.57 μg of PSA and 2.0 μg of r-IGFBP3 (manufactured by Upstate Co. of USA) in 0.1M Tris-hydrochloride buffer (pH 8.0), followed by reaction at 37° C. for 16 hrs, while another specimen was prepared by dissolving 0.57 μg of PSA, 2.0 μg of r-TGFBP3 (manufactured by Upstate Co. of USA) and 4 nmol of Peptide 4 in 0.1M Tris-hydrochloride buffer (pH 8.0), followed by reaction at 37° C. for 16 hrs. Each of the specimens was subjected to a 4 to 20% gradient gel to conduct SDS electrophoresis under non-reduction in the conditions described by Laemmli et al. (Iqature, 227: 680-685, 1970). After electrophoresis, separated proteins were transferred to a nitrocellulose membrane to carry out Western blotting using anti-IGFBP3 antibody (produced by Biogenesis Co. of USA) as a primary antibody and anti-rabbit antibody (produced by Promega Co. of USA) labeled with horseradish peroxidase (HRP) as a secondary antibody. The HRP activity was detected by chemiluminescence (Renaissance Western Blot Chemiluminescence Reagent, NEN™ produced by Life Science Products Co. of USA), and the protein bands as detected were quantitatively determined by use of a densitometer.

[3] = column A, Substrate:Peptide molar ratio 1:1
[4] = column B, Substrate:Peptide molar ratio 1:10

Sequence | Residual activity rate (%) after addition of Peptides (PSA [1]; [3]) [%] | Residual activity rate (%) after addition of Peptides (PSA [1]; [4]) [%] | Residual rate % of the 50 kDa band (PSA [2]) [%]
GFYKKKQSR [Peptide 4, Gly(217)-Phe-Tyr-Lys-Lys-Lys-Gln-Ser-Arg(225)] | 66.5 | 46.6 | 65.1
VSSTHRVSDPKF [Peptide 2, Val(127)-Ser-Ser-Thr-His-Arg-Val-Ser-Asp-Pro-Lys-Phe(138)] | 87.5 | 104.8 | 
VNASAVSRLRAYLLP [Peptide 1, val(88)-Asn-Ala-Ser-Ala-Val-Ser-Arg-Leu-Arg-Ala-Tyr-Leu-Leu-Pro(102)] | 107.4 | 100.7 | 
PSKGRKRGFM [Peptide 5, Pro(226)-Ser-Lys-Gly-Arg-Lys-Arg-Gly-Phe-Met(235)] | 75.1 | 84.8 | 
LNHLKFLNVL [Peptide 3, Leu(194)-Asn-His-Leu-Lys-Phe-Leu-Asn-val-Leu(203)] | 83.5 | 73.3 | 
